Measured values reported in US9249123B2, “Pyridinones/pyrazinones, method of making, and method of use thereof” (Genentech, Inc., priority 2010, dated 2016).

Tests used:
[1] = molecular target: full length human wildtype Btk (Homo sapiens (Human), UniProt Q06187); assay: Biochemical Btk Assay
Description: Formula I compounds were tested by a standard biochemical Btk Kinase Assay (Example 901). A generalized procedure for a standard biochemical Btk Kinase Assay that can be used to test Formula I compounds is as follows. […] A master mix plus Btk enzyme is prepared containing 1× Cell Signaling kinase buffer, 0.5 μM PTK Biotinylated peptide substrate 2, 0.01% BSA, and 100 ng/well (0.06 mU/well) Btk enzyme. Btk enzyme is prepared as follows: full length human wildtype Btk (accession number NM-000061) with a C-terminal V5 and 6×His tag was subcloned into pFastBac vector for making baculovirus carrying this epitope-tagged Btk. Generation of baculovirus is done based on Invitrogen's instructions detailed in its published protocol “Bac-to-Bac Baculovirus Expression Systems” (Cat. Nos. 10359-016 and 10608-016). […] The Btk protein is then purified to homogeneity using Ni-NTA column. The purity of the final protein preparation is greater than 95% based on the sensitive Sypro-Ruby staining. A solution of 200 μM ATP is prepared in water and adjusted to pH7.4 with 1N NaOH. A quantity of 1.25 μL of compounds in 5% DMSO is transferred to a 96-well ½ area Costar polystyrene plate. Compounds are tested singly and with an 11-point dose-responsive curve (starting concentration is 10 μM; 1:2 dilution). A quantity of 18.75 μL of master mix minus enzyme (as a negative control) and master mix plus enzyme is transferred to appropriate wells in 96-well ½ area costar polystyrene plate. 5 μL of 200 μM ATP is added to that mixture in the 96-well ½ area Costar polystyrene plate for final ATP concentration of 40 μM. The reaction is allowed to incubate for 1 hour at room temperature. The reaction is stopped with Perkin Elmer 1× detection buffer containing 30 mM EDTA, 20 nM SA-APC, and 1 nM PT66 Ab. The plate is read using time-resolved fluorescence with a Perkin Elmer Envision using excitation filter 330 nm, emission filter 665 nm, and 2nd emission filter 615 nm. IC50 values are subsequently calculated. Alternatively, the Lanthascreen assay can be used to evaluate Btk activity through quantification of its phosphorylated peptide product. The FRET (Fluorescence Resonance Energy Transfer) that occurs between the fluorescein on the peptide product and the terbium on the detection antibody decreases with the addition of inhibitors of Btk that reduce the phosphorylation of the peptide. […] The reaction is initiated by the addition of ATP to 25 uM (Km of ATP). After incubation for 60 minutes at room temperature, the reaction is stopped by the addition of a final concentration of 2 nM Tb-PY20 detection antibody in 60 mM EDTA for 30 minutes at room temperature. Detection is determined on a Perkin Elmer Envision with 340 nm excitation and emission at 495 nm and 520 nm. Exemplary Btk inhibition IC50 values are in Tables and 2.

[2] = tested on: CD86 surface expression on CD19+/7AAD- total mouse splenocytes stimulated with IgM; assay: CD86 Inhibition Assay; assay type: cell-based; conditions: Splenocyte; Balb/c mouse splenocytes, IgM stimulation, 24 hr
Description: A CD86 Inhibition assay can be conducted on Formula I compounds for the inhibition of B cell activity using total mouse splenocytes purified from spleens of 8-16 week old Balb/c mice (Example 905).
A generalized procedure for a standard assay for the inhibition of B cell activity that can be used to test Formula I compounds is as follows. Total mouse splenocytes are purified from spleens of 8-16 week old Balb/c mice by red blood cell lysis (BD Pharmingen #555899). Testing compounds are diluted to 0.5% DMSO and incubated with 1.25×10^6 splenocytes in a final volume of 200 μl in flat clear bottom plates (Falcon 353072) for 60 min at 37° C. Cells are then stimulated with the addition of 15 μg/ml IgM (Jackson ImmunoResearch 115-006-020), and incubated for 24 hr at 37° C., 5% CO2. Following the 24 hr incubation, cells are transferred to conical bottom clear 96-well plates and pelleted by centrifugation at 1200×g×5 min. Cells are preblocked by CD16/CD32 (BD Pharmingen #553142), followed by triple staining with CD19-FITC (BD Pharmingen #553785), CD86-PE (BD Pharmingen #553692), and 7AAD (BD Pharmingen #51-68981E). Cells are sorted on a BD FACSCalibur and gated on the CD19^+/7AAD^− population. The levels of CD86 surface expression on the gated population is measured versus test compound concentration. Exemplary results are in Table 3.

[3] = tested on: production of CD69 by B lymphocytes in human whole blood activated with goat F(ab')2 anti-human IgM; assay: CD69 Whole Blood Assay; assay type: cell-based; conditions: Lymphocyte, anti-IgM stimulation, 20 hours, CD69 positive of CD20 positive cells
Excerpt: A CD69 Whole Blood Assay can be conducted on Formula I compounds to determine the ability of compounds to inhibit the production of CD69 by B lymphocytes in human whole blood activated by crosslinking surface IgM with goat F(ab′)2 anti-human IgM (Example 907).
Human blood is obtained from healthy volunteers, with the following restrictions: 1 week drug-free, non-smokers. Blood (approximately 20 mls to test 8 compounds) is collected by venipuncture into Vacutainer® (Becton, Dickinson and Co.) tubes with sodium heparin.
Solutions of Formula I compounds at 10 mM in DMSO are diluted 1:10 in 100% DMSO, then are diluted by three-fold serial dilutions in 100% DMSO for a ten point dose-response curve. The compounds are further diluted 1:10 in PBS and then an aliquot of 5.5 μl of each compound is added in duplicate to a 2 ml 96-well plate; 5.5 μl of 10% DMSO in PBS is added as control and no-stimulus wells. Human whole blood—HWB (100 μl) is added to each well. After mixing the plates are incubated at 37° C., 5% CO2, 100% humidity for 30 minutes. Goat F(ab′)2 anti-human IgM (10 μl of a 500 μg/ml solution, 50 μg/ml final) is added to each well (except the no-stimulus wells) with mixing and the plates are incubated for an additional 20 hours. At the end of the 20 hour incubation, samples are incubated with fluorescent labeled antibodies for 30 minutes, at 37° C., 5% CO2, 100% humidity. Include induced control, unstained and single stains for compensation adjustments and initial voltage settings. Samples are then lysed with PharM Lyse™ (BD Biosciences Pharmingen) according to the manufacturer's instructions. Samples are then transferred to a 96 well plate suitable to be run on the BD Biosciences HTS 96 well system on the LSRII machine. Data acquired and Mean Fluorescence Intensity values were obtained using BD Biosciences DIVA Software. Results are initially analyzed by FACS analysis software (Flow Jo). […] The IC50 values are calculated by Prism version 5, using a nonlinear regression curve fit.

full length human wildtype Btk, sequence (Q06187 whole entry): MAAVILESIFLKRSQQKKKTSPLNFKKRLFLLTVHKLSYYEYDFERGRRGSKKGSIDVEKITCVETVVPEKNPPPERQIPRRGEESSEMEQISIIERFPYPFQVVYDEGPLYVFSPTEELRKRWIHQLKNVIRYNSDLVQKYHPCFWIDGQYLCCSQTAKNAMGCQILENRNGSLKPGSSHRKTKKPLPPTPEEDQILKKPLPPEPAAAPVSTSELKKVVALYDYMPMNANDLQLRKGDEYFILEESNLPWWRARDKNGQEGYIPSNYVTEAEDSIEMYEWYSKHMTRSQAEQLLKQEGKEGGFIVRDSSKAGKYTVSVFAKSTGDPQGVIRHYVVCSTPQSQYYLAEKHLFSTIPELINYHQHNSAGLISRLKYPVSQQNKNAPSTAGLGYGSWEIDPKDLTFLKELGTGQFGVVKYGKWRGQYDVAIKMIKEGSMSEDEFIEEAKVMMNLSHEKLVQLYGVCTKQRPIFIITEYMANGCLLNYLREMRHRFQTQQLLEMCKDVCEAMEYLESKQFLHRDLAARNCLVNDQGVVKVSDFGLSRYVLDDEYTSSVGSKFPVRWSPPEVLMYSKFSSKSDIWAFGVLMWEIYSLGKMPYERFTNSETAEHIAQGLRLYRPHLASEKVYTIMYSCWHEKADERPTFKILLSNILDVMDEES

EC50 [2] | IC50 [3] | Structure (SMILES) | IC50 [1]
– | – | Cc1c(-c2cn(C)c(=O)c(Nc3ccc(C4NCCN(C)C4=O)cc3)n2)cccc1N1Cc2cc(C(C)(C)C)sc2C1=O (stereo not drawn) [Compound 102, 2-tert-butyl-5-(2-methyl-3-(4-methyl-6-(4-(4-methyl-3-oxopiperazin-2-yl)phenylamino)-5-oxo-4,5-dihydro-pyrazin-2-yl)phenyl)-4H-thieno[2,3-c]pyrrol-6(5H)-one] | 11.5 nM
– | – | Cc1c(-c2cn(C)c(=O)c(Nc3ccc(C4C(=O)NCCN4C)cc3)n2)cccc1N1Cc2cc(C(C)(C)C)sc2C1=O (stereo not drawn) [Compound 104, 2-tert-butyl-5-(2-methyl-3-(4-methyl-6-(4-(1-methyl-3-oxopiperazin-2-yl)phenylamino)-5-oxo-4,5-dihydropyrazin-2-yl)phenyl)-4H-thieno[2,3-c]pyrrol-6(5H)-one] | 95 nM
74 nM | 605 nM | Cn1cc(-c2cccc(N3Cc4cc(C(C)(C)C)ccc4C3=O)c2CO)cc(Nc2ccncn2)c1=O [Compound 107, 5-tert-butyl-2-(2-(hydroxymethyl)-3-(1-methyl-6-oxo-5-(pyrimidin-4-ylamino)-1,6-dihydropyridin-3-yl)phenyl)isoindolin-1-one] | –
– | 1100 nM | Cn1cc(-c2cccc(N3Cc4cc(C(C)(C)C)ccc4C3=O)c2CO)cc(Nc2cc(C3CC3)n[nH]2)c1=O [Compound 110, 5-tert-butyl-2-(3-(5-(3-cyclopropyl-1H-pyrazol-5-ylamino)-1-methyl-6-oxo-1,6-dihydropyridin-3-yl)-2-(hydroxymethyl)phenyl) isoindolin-1-one] | –
– | 157 nM | Cn1cc(-c2cccc(N3Cc4cc(C(C)(C)C)ccc4C3=O)c2CO)cc(Nc2ccn(CCO)n2)c1=O [Compound 119] | –
– | 185 nM | CN1CCN(c2ccc(Nc3cc(-c4cccc(N5Cc6cc(C(C)(C)C)ccc6C5=O)c4CO)cn(C)c3=O)nn2)CC1 [Compound 122, 5-tert-butyl-2-(2-(hydroxymethyl)-3-(1-methyl-5-(6-(4-methylpiperazin-1-yl)pyridazin-3-ylamino)-6-oxo-1,6-dihydropyridin-3-yl)phenyl)isoindolin-1-one] | –
– | – | CN1CCN(C)[C@@H](c2ccc(Nc3nc(-c4ccc(F)c(N5Cc6cc(C(C)(C)C)sc6C5=O)c4F)cn(C)c3=O)cc2)C1=O [Compound 130, 5-(3-{2-tert-butyl-6-oxo-4H,5H,6H-thieno[2,3-c]pyrrol-5-yl}-2,4-difluorophenyl)-3-({4-[(2S)-1,4-dimethyl-3-oxopiperazin-2-yl]phenyl]amino)-1-methyl-1,2-dihydropyrazin-2-one] | 33.7 nM
– | – | CN1CCN(C)[C@@H](c2ccc(Nc3nc(-c4ccc(F)c(N5Cc6cc(C(C)(C)C)sc6C5=O)c4)cn(C)c3=O)cc2)C1=O [Compound 131, 5-(3-{2-tert-butyl-6-oxo-4H,5H,6H-thieno[2,3-c]pyrrol-5-yl}-4-fluorophenyl)-3-({4-[(2S)-1,4-dimethyl-3-oxopiperazin-2-yl]phenyl}amino)-1-methyl-1,2-dihydropyrazin-2-one] | 47.4 nM
– | 42.6 nM | Cn1cc(-c2cccc(N3Cc4cc(C(C)(C)C)sc4C3=O)c2CO)cc(Nc2ccn(CCO)n2)c1=O [Compound 139, 5-(3-{2-tert-butyl-6-oxo-4H,5H,6H-thieno[2,3-c]pyrrol-5-yl}-2-(hydroxymethyl)phenyl)-3-{[1-(2-hydroxyethyl)-1H-pyrazol-3-yl]amino}-1-methyl-1,2-dihydropyridin-2-one] | –
– | 112 nM | Cn1cc(-c2cccc(N3Cc4cc(C(C)(C)C)sc4C3=O)c2CO)cc(Nc2ccc(N3CCOCC3)cn2)c1=O [Compound 151, 5-(3-{2-tert-butyl-6-oxo-4H,5H,6H-thieno[2,3-c]pyrrol-5-yl}-2-(hydroxymethyl)phenyl)-1-methyl-3-{[5-(morpholin-4-yl)pyridin-2-yl]amino}-1,2-dihydropyridin-2-one] | –
153 nM | 116 nM | Cn1cc(-c2cccc(N3Cc4cc(C(C)(C)C)sc4C3=O)c2CO)nc(Nc2ccc(N3CCOCC3)cc2)c1=O [Compound 160, 5-(3-{2-tert-butyl-6-oxo-4H,5H,6H-thieno[2,3-c]pyrrol-5-yl}-2-(hydroxymethyl)phenyl)-1-methyl-3-{[4-(morpholin-4-yl)phenyl]amino}-1,2-dihydropyrazin-2-one] | –

Structure (SMILES) | EC50 [2] | IC50 [3] | IC50 [1]
Cc1c(-c2cn(C)c(=O)c(Nc3ccc(C4C(=O)NCCN4C)cc3)n2)cccc1N1Cc2cc(C(C)(C)C)sc2C1=O (stereo not drawn) [Compound 134, 5-(3-{2-tert-butyl-6-oxo-4H,5H,6H-thieno[2,3-c]pyrrol-5-yl}-2-methylphenyl)-1-methyl-3-{[4-(1-methyl-3-oxopiperazin-2-yl)phenyl]amino}-1,2-dihydropyrazin-2-one] | 1900 nM | – | 24.7 nM
